In publication PMC10693084, “Novel 8-Methoxycoumarin-3-Carboxamides with potent anticancer activity against liver cancer via targeting caspase-3/7 and β-tubulin polymerization” (BMC Chemistry, 2023):

Experiments:
caspase-3/7 = assay: Caspase-3/7 green flow cytometric assay in HepG2 cells; format: cell-based, human; conditions: HepG2 cells treated with compound
From the text: Caspase-3 is a cysteine-aspartic protease protein that facilitates the enzymatic cleavage of specific target proteins. It consists of two subunits, specifically a 12-kDa subunit and a 17-kDa subunit, which are characterized by the presence of three and five thiol functions, respectively. […] The crucial involvement of the terminal caspase-3/7 activation is observed in the initiation of apoptosis and subsequent cell demise in neoplastic cells. To gain more insight into the apoptotic mode of action for compound 5, we assessed the active caspase-3/7 levels in HepG2 cells utilizing a green flow cytometric assay. […] Compared to the control group of untreated HepG2 cells, there was a remarkable 5.6-fold rise in the levels of active Caspase-3/7 upon treatment with compound 5. […] These findings provide valuable insights into the potential mechanism of action of compound 5 as an anti-cancer agent. Activation of Caspase-3/7 is a pivotal step in the apoptotic pathway, leading to the programmed destruction of cancer cells. […]
The HepG2 cell line was subjected to treatment with compound 5, and subsequently, an analysis was conducted using the Cell Event caspase-3/7 green flow assay. […] Subsequently, the cells were assessed utilizing the BD FACS CALIBER flow cytometer.

WI 38 normal cells = assay: MTT cytotoxicity assay against WI 38 normal cells; format: cell-based; conditions: Homo sapiens, WI 38 normal lung cells, 24 h treatment
Protocol: Following the incubation period, the cells were subjected to various concentrations of the prepared molecules and subsequently incubated for a duration of 24 h. […] Subsequently, a volume of 100 μL of dimethyl sulfoxide (DMSO) was introduced into each well in order to facilitate the dissolution of the purple formazan that had been generated. The quantification of the color intensity of the formazan product, which serves as an indicator of the cellular growth condition, is performed by employing an ELISA plate reader set at a wavelength of 570 nm. The experimental conditions were implemented with a minimum of three replicates, and the experiments were conducted on at least three separate occasions.

HepG2 cells = assay: Cell cycle analysis by flow cytometry (PI); format: cell-based, human; conditions: HepG2, 0.9 µM (IC50), 24 h
Protocol: Next, our investigations focused on evaluating the effects of compound 5 on the cell cycle of HepG2 cells utilizing flow cytometric analysis. The cells were treated with compound 5 at a concentration corresponding to the IC50 value and the cell cycle distribution was then analyzed, and the results were compared with untreated control cells. […] Conversely, there was a notable increase in the cellular population at the G2/M and pre-G1 phases. […] These findings indicate that compound 5 induces a notable arrest in cell growth during the […] phase. The flow cytometric analysis of HepG2 cells treated with compound 5 provided valuable insights into its effects on the cell cycle distribution. […] The G0/G1 phase is the resting phase, where cells prepare for DNA replication and cell division, while the S phase is where DNA replication occurs. […] This is a critical control point where the cell ensures that DNA replication is complete and free from errors before entering mitosis. […] The most remarkable finding was the dramatic rise in the pre-G1 population upon treatment with compound 5. The pre-G1 phase is associated with cells undergoing apoptosis, which is a programmed cell death process. […] This implies that the treatment with compound 5 leads to the activation of apoptotic pathways, causing the cells to undergo DNA fragmentation and degradation, ultimately leading to cell death. […] G2/M arrest prevents cells from progressing through the cell cycle, while apoptosis eliminates the damaged or aberrant cells. These combined effects may contribute to the compound's potent anti-cancer activity against HepG2 cells.
The quantification of DNA content in the cell cycle analysis was performed using a FACS Calibur flow cytometer at a wavelength of 488 nm, following the guidelines provided by the manufacturer. […] Following the completion of the treatment, the cells underwent two rounds of washing and were subsequently resuspended in phosphate-buffered saline (PBS). Following the washing step, a volume of 0.7 ml of absolute ethanol was subsequently introduced, and the mixture was incubated at a temperature of -20 °C for a duration of 20 min. Following the washing step, a volume of 500 μl of RNase was introduced, and subsequently, the mixture was incubated for a duration of 30 min. Next, the addition of PI was carried out, followed by a 30-min incubation period, during which exposure to light was carefully avoided.

COc1ccc(Br)c2cc(C(N)=O)c(=O)oc12 [Compound 5, 5-Bromo-8-methoxycoumarin-3-carboxamide]
rise in levels of active Caspase-3/7 vs untreated HepG2 cells (caspase-3/7): 5.6 fold
IC50 (WI 38 normal cells): 24.1 ± 1.46 µM
percentage of cells in pre-G1 phase (HepG2 cells; untreated 2.08%): 45.88%
percentage of cells in G2/M phase (HepG2 cells; untreated 15.38%): 31.51%
percentage of cells in S phase (HepG2 cells; untreated 34.91%): 27.4%
percentage of cells in G0/G1 phase (HepG2 cells; untreated 49.71%): 41.09%
